US6750228B1, “Aromatic sulfone hydroxamic acid metalloprotease inhibitor” (priority 1997, dated 2004)
Structures can show the parent of a compound that is named as a salt. Where two headings read alike, the source gives them in different places.

Assays:
Assay in all cases: biochemical
MMP-1 = target: T1, MMP-1 (Homo sapiens, UniProt P03956); conditions: read-out: MMP-1 IC50
T1 construct: made in house; host or cells: transfected HT-1080 cells (provided by Dr. Harold Welgus, Washington University)
T1 sequence (P03956 100-469): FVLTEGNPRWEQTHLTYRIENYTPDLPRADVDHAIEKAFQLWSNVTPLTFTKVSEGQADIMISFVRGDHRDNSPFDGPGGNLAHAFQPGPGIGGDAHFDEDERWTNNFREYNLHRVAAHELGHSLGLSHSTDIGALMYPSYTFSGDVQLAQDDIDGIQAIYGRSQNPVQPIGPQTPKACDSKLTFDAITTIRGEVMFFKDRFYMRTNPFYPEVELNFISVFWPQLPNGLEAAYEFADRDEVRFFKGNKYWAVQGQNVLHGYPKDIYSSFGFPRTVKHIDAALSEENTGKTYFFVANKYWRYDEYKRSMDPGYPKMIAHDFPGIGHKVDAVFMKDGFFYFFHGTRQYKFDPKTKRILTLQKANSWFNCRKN
Method in brief: (§1)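 Assay buffer 100 mM Tris-HCl, 100 mM NaCl, 10 mM CaCl2, pH 7.5. Activated MMP + inhibitor, 5 min RT; then methoxycoumarin peptide substrate, 4 μM final. Readout fluorescence; IC50 calculated.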

MMP-13 = target: T2, MMP-13 (Homo sapiens, UniProt P45452); conditions: recombinant human MMP-13, MCA peptide substrate 4 μM, pH 7.5, room temperature; read-out: MMP-13 IC50
T2 construct: made in house; host or cells: baculovirus / insect cells
Method in brief: as §1

MMP-2 = target: T3, MMP-2 (Homo sapiens, UniProt P08253); conditions: recombinant human MMP-2, MCA peptide substrate 4 μM, pH 7.5, room temperature; read-out: MMP-2 IC50
T3 construct: made in house; provided by Dr. Gregory Goldberg, Washington University
T3 sequence (P08253 110-660): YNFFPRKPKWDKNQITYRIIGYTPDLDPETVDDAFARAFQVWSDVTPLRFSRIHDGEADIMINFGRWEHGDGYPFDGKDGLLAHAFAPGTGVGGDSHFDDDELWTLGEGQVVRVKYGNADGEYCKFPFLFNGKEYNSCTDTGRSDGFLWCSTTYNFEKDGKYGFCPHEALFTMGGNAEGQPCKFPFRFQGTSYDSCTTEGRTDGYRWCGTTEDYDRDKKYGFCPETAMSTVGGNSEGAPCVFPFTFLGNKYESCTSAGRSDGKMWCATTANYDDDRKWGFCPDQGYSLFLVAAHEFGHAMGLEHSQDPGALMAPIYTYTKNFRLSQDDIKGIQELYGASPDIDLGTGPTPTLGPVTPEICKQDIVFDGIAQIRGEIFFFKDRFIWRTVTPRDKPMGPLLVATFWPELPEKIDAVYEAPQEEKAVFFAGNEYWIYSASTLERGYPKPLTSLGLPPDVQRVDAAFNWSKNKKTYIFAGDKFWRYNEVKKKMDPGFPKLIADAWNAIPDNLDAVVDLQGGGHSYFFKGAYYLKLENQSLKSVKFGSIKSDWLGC
Method in brief: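 APMA- or trypsin-activated human MMPs (MMP-1 from transfected HT-1080 cells, MMP-2 from transfected cells) preincubated with inhibitor in 1% DMSO at room temperature, then 4 μM MCA-Pro-Leu-Gly-Leu-Dpa-Ala-Arg-NH2 added in Tris/NaCl/CaCl2 buffer pH 7.5. IC50 from fluorescence reduction versus inhibitor concentration.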

[1] = recombinant human MMP-1, MCA peptide substrate 4 μM, pH 7.5, room temperature

SMILES	IC50 (MMP-1; [1]) [nM]	IC50 (MMP-13) [nM]	IC50 (MMP-2) [nM]	IC50 (MMP-1) [nM]
O=C(NO)C1(S(=O)(=O)c2ccc(N3CCCN(S(=O)(=O)c4ccc(OC(F)(F)F)cc4)CC3)cc2)CCOCC1 [Example 699]	> 10000	50	455	
CC1CC(C)CN(C(=O)C2CCN(c3ccc(S(=O)(=O)C4(C(=O)NO)CCN(C(=O)CN(C)CCN(C)C)CC4)cc3)CC2)C1 (stereo not drawn) [Example 287]	> 10000	150	> 10000	
O=C(Nc1ccccc1)C1CCN(c2ccc(S(=O)(=O)C3(C(=O)NO)CCN(C4CC4)CC3)cc2)CC1 [Example 243, 1-Cyclopropyl-N-hydroxy-4-[[4-[4-[(phenylamino)carbonyl]-1-piperidinyl]phenyl]sulfonyl]-4-piperidinecarboxamide, Monohydrochloride]	> 10000	11.3	420	
O=C(NO)C1(S(=O)(=O)c2ccc(N3CCC(OCc4ccc(COCC(F)(F)C(F)(F)C(F)(F)F)cc4)CC3)cc2)CCOCC1 [Example 609]	> 10000	30.6	2800	
CC1CC(C)CN(C(=O)C2CCN(c3ccc(S(=O)(=O)C4(C(=O)NO)CCN(C(=O)CNCc5ccccn5)CC4)cc3)CC2)C1 (stereo not drawn) [Example 284]	> 10000	130	> 10000	
O=C(NO)C1(S(=O)(=O)c2ccc(N3CCCN(S(=O)(=O)c4ccccc4)CC3)cc2)CCOCC1 [Example 650]	> 10000	14.7	1200	
O=C(NO)C1(S(=O)(=O)c2ccc(N3CCC(Oc4ccc(Cl)c(Cl)c4)CC3)cc2)CCOCC1 [Example 617]	> 10000	7	5.7	
COCCN1CCC(C(=O)NO)(S(=O)(=O)c2ccc(Oc3ccc(-n4cncn4)cc3)cc2)CC1 [Example 262, N-Hydroxy-1-(2-methoxyethyl)-4-[[4-[4-(1H-1,2,4-triazol-1-yl)phenoxy]phenyl]sulfonyl]-4-piperidinecarboxamide Trihydrochloride]	> 10000	1.5	0.9	
Cc1cccc(OC2CCN(c3ccc(S(=O)(=O)C4(C(=O)NO)CCOCC4)cc3)CC2)c1 [Example 485]	> 10000	8	4.2	
O=C(c1ccc2ccccc2c1)C1CCN(c2ccc(S(=O)(=O)C3(C(=O)NO)CCOCC3)cc2)CC1 [Example 844]		5	4700	> 10000
COCCN1CCC(C(=O)NO)(S(=O)(=O)c2ccc(N3CCC(C(=O)N(C)CCc4ccccn4)CC3)cc2)CC1 [Example 235, 1-[4-[[4[(Hydroxyamino)carbonyl]-1-(2-methoxyethyl)-4-piperidinyl]sulfonyl]phenyl]-N-methyl-N-[2-(2-pyridinyl)ethyl]-4-piperidinecarboxamide, Dihydrochloride]	> 10000	235	5300	
O=C(c1ccc2c(c1)OCO2)C1CCN(c2ccc(S(=O)(=O)C3(C(=O)NO)CCOCC3)cc2)CC1 [Example 796]	> 10000	5.7	130	
CC1CC(C)CN(C(=O)C2CCN(c3ccc(S(=O)(=O)C4(C(=O)NO)CCN(C(=O)CNCCOCCO)CC4)cc3)CC2)C1 (stereo not drawn) [Example 301]	> 10000	90	> 10000	
Cc1ccc(C(=O)C2CCN(c3ccc(S(=O)(=O)C4(C(=O)NO)CCN(C5CC5)CC4)cc3)CC2)cc1C [Example 383]	> 10000	3	700	
CC(C)(C)c1ccc(C(=O)C2CCN(c3ccc(S(=O)(=O)C4(C(=O)NO)CCOCC4)cc3)CC2)cc1 [Example 789]		12.2	3700	> 10000
O=C(NO)C1(S(=O)(=O)c2ccc(N3CCC(Oc4cc(F)c([N+](=O)[O-])c(F)c4)CC3)cc2)CCOCC1 [Example 549]	> 10000	55.3	2900	
COCCNCC(=O)N1CCC(C(=O)NO)(S(=O)(=O)c2ccc(N3CCC(C(=O)N4CC(C)CC(C)C4)CC3)cc2)CC1 (stereo not drawn) [Example 309]	> 10000	48.5	> 10000	
